From BigSolDB 2.1

COc1cc(NS(=O)(=O)c2ccc(N)cc2)ncn1
Settings | solubility (mole fraction)
in acetone, 299.05 K | 0.00789
in acetone, 303.3 K | 0.00849
in acetone, 308.2 K | 0.00935
in acetone, 313.15 K | 0.0105
in acetone, 318.05 K | 0.0112
in acetone, 323.05 K | 0.0124
in ethanol, 297.95 K | 0.000496
in ethanol, 310.95 K | 0.000859
in ethanol, 317.65 K | 0.00109
in ethanol, 327.95 K | 0.00161
in ethanol, 337.85 K | 0.00243
in ethanol, 347.15 K | 0.00356
in ethyl acetate, 300.65 K | 0.00114
in ethyl acetate, 308.2 K | 0.00131
in ethyl acetate, 316.05 K | 0.00146
in ethyl acetate, 324 K | 0.00169
in ethyl acetate, 331.95 K | 0.00184
in ethyl acetate, 339.8 K | 0.00205
in methanol, 294.55 K | 0.000735
in methanol, 303.15 K | 0.000951
in methanol, 309.95 K | 0.00117
in methanol, 317.75 K | 0.00164
in methanol, 325.85 K | 0.00221
in methanol, 332.65 K | 0.00284
in n-butanol, 305.2 K | 0.000117
in n-butanol, 318.05 K | 0.000288
in n-butanol, 327.85 K | 0.000607
in n-butanol, 339.85 K | 0.00121
in n-butanol, 352.55 K | 0.0029
in n-butanol, 362.15 K | 0.00479
in n-propanol, 300.25 K | 0.000233
in n-propanol, 308.15 K | 0.00037
in n-propanol, 318.05 K | 0.000598
in n-propanol, 327.95 K | 0.00102
in n-propanol, 342.75 K | 0.00198
in n-propanol, 352.45 K | 0.00353
in n-propanol, 361.85 K | 0.00556
